Key:
[1] = tested on: Vancomycin-resistant Enterococcus faecium 569; assay: Antibacterial specific activity, twofold dilutions, visual growth evaluation; assay type: cell-based; conditions: Vancomycin-resistant E. faecium 569; 36° C., 24 hours
How it was run: (§1)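 Broth microdilution: twofold serial dilutions of compound in water or DMSO, each well inoculated at 5×10^5 CFU/ml, incubated 36° C. for 24 hours. MIC taken as the last dilution visibly suppressing growth versus compound-free growth control. S. aureus grown on Trypticase Soy Agar, E. faecalis on Columbia Agar.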

[2] = tested on: Staphylococcus aureus No. 3797 (MRSA); assay: as above; assay type: cell-based; conditions: St. aur No. 3797 MRSA; 36° C., 24 hours
How it was run: as §1

[3] = tested on: Herpes Simplex Virus type 1 strain EC; assay: Antiviral activity, virus cytopathogenic action in Vero cells; assay type: cell-based; design: key: 0: CPA (cytopathogenic action) is not detected; 1: up to 25% virus-infected monolayer; from 25% to 50%; 3: from 50% to 75%; 4: from 75% to 100%; conditions: 48 hours
[4] = HSV-1, virus dose 1, concentration 0.1 μM
[5] = HSV-1, virus dose 1, concentration 1 μM
[6] = HSV-1, virus dose 1, concentration 10 μM
[7] = HSV-1, virus dose 10, concentration 0.1 μM
[8] = HSV-1, virus dose 10, concentration 1 μM
[9] = HSV-1, virus dose 10, concentration 10 μM
[10] = HSV-1, virus dose 100, concentration 0.1 μM
[11] = HSV-1, virus dose 100, concentration 1 μM
[12] = HSV-1, virus dose 100, concentration 10 μM

Row | Molecule | MIC [1] [µM] | MIC [2] [µM] | manifestation of the virus CPA [3, 4] | manifestation of the virus CPA [3, 5] | manifestation of the virus CPA [3, 6] | manifestation of the virus CPA [3, 7] | manifestation of the virus CPA [3, 8] | manifestation of the virus CPA [3, 9] | manifestation of the virus CPA [3, 10] | manifestation of the virus CPA [3, 11] | manifestation of the virus CPA [3, 12] | water solubility (Water solubility)
1 | 6,7-bis-(Amide N^α-Glycyl)-Protohemin (IX) [IV] | 50 | 3.12 | 1 (up to 25% virus-infected monolayer) | 1 (up to 25% virus-infected monolayer) | 0^1 | 2 (from 25% to 50%) | 2 (from 25% to 50%) | 0^1 | 3 (from 50% to 75%) | 3 (from 50% to 75%) | 2^1 (from 25% to 50%) | water-insoluble
2 | 6,7-bis-[(Diamide N^α-L-Arginyl)-L-glutamyl]-Protohemin (IX) | 6.25 | – | – | – | – | – | – | – | – | – | – | water-soluble
3 | C=CC1=C(C)c2cc3[n-]c(cc4[n-]c(cc5nc(cc1n2)C(C)=C5C=C)c(C)c4CCC(=O)N[C@@H](CCCNC(=N)N)C(N)=O)c(CCC(=O)N[C@@H](CCCNC(=N)N)C(N)=O)c3C.[Cl-].[Fe+3] [II, 6,7-bis-(Amide N^α-Arginyl)-Protohemin (IX)] | 3.12 | 50 | – | – | – | – | – | – | – | – | – | water-soluble
4 | C=CC1=C(C)c2cc3[n-]c(cc4[n-]c(cc5nc(cc1n2)C(C)=C5C=C)c(C)c4CCC(=O)N[C@@H](CO)C(N)=O)c(CCC(=O)N[C@@H](CO)C(N)=O)c3C.[Cl-].[Fe+3] [V, 6,7-bis-(Amide N^α-Seryl)-Protohemin (IX)] | 25 | 1.56 | – | – | – | – | – | – | – | – | – | water-insoluble
5 | C=CC1=C(C)c2cc3[n-]c(cc4[n-]c(cc5nc(cc1n2)C(C)=C5C=C)c(C)c4CCC(=O)N[C@@H](CO)C(=O)O)c(CCC(=O)N[C@@H](CO)C(=O)O)c3C.[Cl-].[Fe+3] [VI, 6,7-bis-(N^α-Seryl]-Protohemin (IX)] | >50.0 | 0.78 | 0^1 | 0^1 | 0^1 | 2 (from 25% to 50%) | 2 (from 25% to 50%) | 2^ (from 25% to 50%) | 3 (from 50% to 75%) | 3.3 scores | 3 (from 50% to 75%) | –

Source: patent publication US9605013B2, “Derivatives of hemin with antibacterial and antiviral activity” (OBSCHESTVO S OGRANICHENNOI OTVETSTVENNOSTIYU …, priority 2011, dated 2017)
